Measured values taken from patent publication US8871751B2, “Compositions and methods relating to nuclear hormone and steroid hormone receptors including inhibitors of estrogen receptor alpha-mediated gene expression and inhibition of breast cancer” (The Board of Trustees of the University of Illinois, priority 2008, dated 2014).

Columns and labels:
[1] = target: T1, human ERα binding to flcERE (Homo sapiens, UniProt P03372); assay: FAMA: inhibition of ERα binding to flcERE; conditions: FAMA, binding to HRE, 5 concentrations 0.5-10 μM, sequential method; read-out: IC50 ERα
T1 construct: Full-length FLAG-tagged human ERα was expressed and purified as described previously (27); FLAG; made in house
T1 sequence (P03372 1-595): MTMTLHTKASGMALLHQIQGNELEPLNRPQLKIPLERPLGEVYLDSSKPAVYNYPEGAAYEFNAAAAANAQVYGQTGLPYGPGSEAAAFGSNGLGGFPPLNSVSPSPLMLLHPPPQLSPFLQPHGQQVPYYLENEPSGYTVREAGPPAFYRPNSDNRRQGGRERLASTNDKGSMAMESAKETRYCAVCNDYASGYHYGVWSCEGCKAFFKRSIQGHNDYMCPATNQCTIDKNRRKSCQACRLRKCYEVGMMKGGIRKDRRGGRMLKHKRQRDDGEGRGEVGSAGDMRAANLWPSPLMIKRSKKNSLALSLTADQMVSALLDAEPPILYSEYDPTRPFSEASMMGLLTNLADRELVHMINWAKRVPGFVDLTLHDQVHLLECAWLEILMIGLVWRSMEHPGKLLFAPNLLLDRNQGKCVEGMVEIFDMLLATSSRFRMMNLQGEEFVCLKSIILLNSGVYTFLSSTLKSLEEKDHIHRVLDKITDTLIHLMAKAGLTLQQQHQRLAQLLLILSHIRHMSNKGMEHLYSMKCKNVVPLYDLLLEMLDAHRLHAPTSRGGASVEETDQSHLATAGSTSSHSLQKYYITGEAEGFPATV
Protocol: Prior to screening, the 10 mM library stocks were diluted to produce replica libraries in 384-well plates containing each small molecule at 0.25 mM (in DMSO). In our initial studies we were concerned that forming the flcERE-ERα complex first and then adding the candidate small molecule inhibitors would miss small molecules that bind at the interface. We therefore screened using the “sequential” method in which the candidate small molecules were first incubated with ERα and followed by addition of the flcERE. The assay for binding of ERα to the flcERE is a modification of our earlier assay (27). Assays were carried out at room temperature in black wall 384-well microplates (Greiner/Bio-One) in a total volume of 10 μl in buffer containing 20 mM Tris pH 7.5, 10% glycerol, 0.2 mM EDTA, 2 mM DTT, 100 mM KCl, 0.5 ng/μl poly dl:dC, […] bovine serum albumin and 100 nM 17β-estradiol (E2). For high throughput screening, a master mix without ERα and probe was prepared at 4° C. The master mix was divided into 2 parts. ERα was added to one part to 5 nM in the final assays. 7 μl of the ERα-containing mix was then dispensed into each well of a 384-well plate on ice. 100 nl of the compounds being tested was then added using a pin-transporter (V & P Scientific, Inc, CA) to a final concentration of 2.5 μM. The samples were mixed using the pin-transporter and sedimented by centrifugation for 2 min. at 4° C. and incubated on ice for 10 min. The flcERE probe was added to the other aliquot of the mix to 1 nM. 3 μl of the mix containing the flcERE probe was added to each well containing ERα and the test compound. The samples were mixed using the pin-transporter, the plates were briefly centrifuged and incubated at room temperature for 10 min. and fluorescence anisotropy (FA) was measured using a BMG PheraStar (BMG Labtech) microplate reader (module: 485 520) with excitation at 485λ and emission at 520λ. To identify small molecules that were highly fluorescent, or quench fluorescence, fluorescence intensity was also measured.
(§1) Dose response curves for selected compounds were carried out as described for the HTS screen except that each well contained the indicated concentration of test compound. PR assays were carried out in the same buffer used for ERα assays and contained 1 nM flcPRE and 11 nM PR-B and 100 nM progesterone. The buffer used for AR was similar but also contained 5 μM ZnCl, 5 mM NaF, 0.6 μM CHAPS and 100 nM dihydrotestosterone. AR assays contained 1 nM flcARE and 50 nM full-length wild-type AR.

[2] = target: T2, human PR-B binding to flPRE (Homo sapiens, UniProt P06401); assay: FAMA: inhibition of PR binding to flcPRE; conditions: binding to HRE, 5 concentrations 0.5-10 μM, sequential method
T2 construct: FLAG; made in house
T2 sequence (P06401 1-933): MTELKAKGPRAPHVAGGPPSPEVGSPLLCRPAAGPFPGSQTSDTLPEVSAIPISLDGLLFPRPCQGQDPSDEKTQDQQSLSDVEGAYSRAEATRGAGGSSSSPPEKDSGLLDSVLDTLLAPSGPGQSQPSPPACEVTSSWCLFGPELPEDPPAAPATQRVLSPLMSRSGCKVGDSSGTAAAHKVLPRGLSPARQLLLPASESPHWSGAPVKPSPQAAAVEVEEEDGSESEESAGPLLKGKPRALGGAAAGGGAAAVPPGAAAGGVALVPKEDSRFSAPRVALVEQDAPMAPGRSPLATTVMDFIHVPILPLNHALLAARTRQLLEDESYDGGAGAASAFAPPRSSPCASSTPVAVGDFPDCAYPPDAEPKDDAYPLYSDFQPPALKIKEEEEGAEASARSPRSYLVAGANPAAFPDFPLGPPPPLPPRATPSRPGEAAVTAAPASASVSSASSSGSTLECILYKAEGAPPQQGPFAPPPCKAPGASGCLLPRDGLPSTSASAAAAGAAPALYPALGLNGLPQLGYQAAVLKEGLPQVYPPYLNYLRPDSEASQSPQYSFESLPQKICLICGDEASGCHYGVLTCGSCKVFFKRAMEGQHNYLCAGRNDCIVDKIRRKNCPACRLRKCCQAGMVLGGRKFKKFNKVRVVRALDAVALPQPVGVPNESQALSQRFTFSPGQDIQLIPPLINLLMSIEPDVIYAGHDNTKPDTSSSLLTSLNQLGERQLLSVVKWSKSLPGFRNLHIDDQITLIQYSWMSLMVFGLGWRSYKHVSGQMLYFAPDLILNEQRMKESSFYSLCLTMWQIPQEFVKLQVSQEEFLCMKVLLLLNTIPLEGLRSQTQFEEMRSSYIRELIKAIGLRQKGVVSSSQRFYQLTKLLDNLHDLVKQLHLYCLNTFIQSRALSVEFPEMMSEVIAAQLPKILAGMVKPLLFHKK
Protocol: as §1
(§2) Specificity was evaluated in dose-response studies by quantitative FAMA using purified full-length human PR binding to a fluorescein-labeled progesterone/glucocorticoid response element (flPRE) and full-length human androgen receptor (AR) binding to a fluorescein-labeled androgen response element (flARE).

[3] = target: T3, human androgen receptor (AR) binding to flARE (Homo sapiens, UniProt P10275); assay: FAMA: inhibition of AR binding to flcARE; conditions: binding to HRE, 5 concentrations 0.5-10 μM, sequential method
T3 construct: AR assays contained 1 nM flcARE and 50 nM full-length wild-type AR; FLAG; made in house
T3 sequence (P10275 1-920): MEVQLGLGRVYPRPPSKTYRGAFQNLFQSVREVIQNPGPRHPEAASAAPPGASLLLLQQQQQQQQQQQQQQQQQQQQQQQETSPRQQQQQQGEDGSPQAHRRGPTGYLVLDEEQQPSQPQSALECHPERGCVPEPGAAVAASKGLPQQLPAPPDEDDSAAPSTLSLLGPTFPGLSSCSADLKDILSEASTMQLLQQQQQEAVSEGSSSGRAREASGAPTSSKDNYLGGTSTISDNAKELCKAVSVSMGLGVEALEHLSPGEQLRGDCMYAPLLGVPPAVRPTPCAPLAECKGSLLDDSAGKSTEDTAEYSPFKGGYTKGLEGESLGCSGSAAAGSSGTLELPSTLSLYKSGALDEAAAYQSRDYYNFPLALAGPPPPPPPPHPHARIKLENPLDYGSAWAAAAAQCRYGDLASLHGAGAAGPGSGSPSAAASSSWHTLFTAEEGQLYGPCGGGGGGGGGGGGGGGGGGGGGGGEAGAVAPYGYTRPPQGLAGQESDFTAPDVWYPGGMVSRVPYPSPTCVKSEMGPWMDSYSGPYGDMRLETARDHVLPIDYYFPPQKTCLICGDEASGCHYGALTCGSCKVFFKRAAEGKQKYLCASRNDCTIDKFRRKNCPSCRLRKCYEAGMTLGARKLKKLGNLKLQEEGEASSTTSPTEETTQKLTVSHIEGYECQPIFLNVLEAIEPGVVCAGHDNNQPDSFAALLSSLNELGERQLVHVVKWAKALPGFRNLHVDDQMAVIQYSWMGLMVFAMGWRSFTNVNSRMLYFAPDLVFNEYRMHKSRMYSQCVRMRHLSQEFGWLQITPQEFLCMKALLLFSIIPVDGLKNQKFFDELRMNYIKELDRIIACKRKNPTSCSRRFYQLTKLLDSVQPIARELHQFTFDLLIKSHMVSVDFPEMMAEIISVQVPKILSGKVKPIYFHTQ
Protocol: as §1, §2

| Structure (SMILES) | IC50 [1] [µM] | IC50 [2] [µM] | IC50 [3] [µM] |
| --- | --- | --- | --- |
| CCCCCCCC(=O)OC [Compound 3710] | 2.5 | 2.9 | – |
| O=C(O)/C=C/c1ccc([N+](=O)[O-])cc1 [Compound 2067] | 5 | – | 3 |
| CCc1c(O)c2c(c(O)c1C(C)=O)C(=O)c1c(cc(O)c(C(=O)O)c1C(=O)O)C2=O [Compound 170008] | 9 | – | 9 |
| O=C(O)c1cccc2cccc(-c3cccc4cccc(C(=O)O)c34)c12 [Compound 7810] | > 10 | > 10 | > 10 |
| O=C(O)/C=C/c1ccccc1Cl [Compound 4792] | > 10 | > 10 | 7.5 |
| CCN(CC)CCOc1ccc(Cl)cc1Cc1ccccc1 [Compound 9548] | 1 | 5 | 4 |
| C=C(CC(=O)O)C(=O)O.C=CC(=O)O [Compound 146443] | – | 0.4 | – |
| O=C1NC(=S)NC(=O)C1=Cc1cccc2cc3ccccc3cc12 [Compound 90737] | 10 | > 10 | > 10 |
| N#CC(C#N)=CNCCN1CCN(C=C(C#N)C#N)CC1 [Compound 343040] | > 10 | > 10 | > 10 |
| Brc1cccs1 [Compound 4456] | 7.5 | > 10 | > 10 |
| C=CCOC(=O)c1ccc(Cl)cc1 [Compound 8216] | 9 | > 10 | > 10 |
| O=C(Nc1cc[c]([Sb](=[O])([OH])[OH])cc1)c1ccccc1 [Compound 15596] | 5 | > 10 | > 10 |
| CCCN(C(C)=O)c1ccccc1 [Compound 4700] | 2 | 2.7 | 2 |
| CN1CCc2[nH]nc(-c3n[nH]c4c3CN(C)CC4)c2C1 [Compound 371847] | > 10 | > 10 | > 10 |
| Nc1ccc(S(=O)(=O)c2ccc(NCN3C(=O)NC(=O)C(=O)C3=O)cc2)cc1 [Compound 34238] | 1.8 | > 10 | – |
| CC(C)/C=N/Nc1ccc([N+](=O)[O-])cc1[N+](=O)[O-] [Compound 6122] | 5.8 | 5.3 | 3.7 |

| Structure (SMILES) | IC50 [1] [µM] | IC50 [2] [µM] | IC50 [3] [µM] |
| --- | --- | --- | --- |
| [Cu].c1ccc2c(c1)C1=NC2=NC2=NC(=NC3=NC(=NC4=NC(=N1)c1ccccc14)c1ccccc13)c1ccccc12 [Compound 43628] | > 10 | > 10 | > 10 |
| CC(C)CCOC(=S)S [Compound 4864] | 8 | 8.8 | 6.5 |
| O=C(O)c1nn(-c2ccc(Cl)cc2)c2c1C(=O)c1ccccc1C2=O [Compound 360494] | > 10 | > 10 | > 10 |
| CCCCCN(CCCCC)CCC(O)c1cccc2ccccc12 (stereo not shown) [Compound 9671] | > 10 | > 10 | > 10 |
| O=C(CCBr)OCCc1ccccc1 [Compound 7122] | 5 | – | 7.5 |
| CCOC(=O)C(CC)(C(=O)OCC)C(C)C [Compound 4695] | 2.5 | 4 | 4.8 |
| CCNc1ccc(-c2ccc(NCC)cc2)cc1 [Compound 2674] | 5.5 | 6.2 | 5.8 |
| O=[N+]([O-])/C=C/c1ccco1 [Compound 5650] | 8 | 7.5 | 5.5 |
| CCC1CCC(C)NC1 (stereo not shown) [Compound 6119] | 9 | 9 | 7.4 |
| CNc1ccccc1O [Compound 3879] | 3.7 | 6.5 | 7.5 |
| CCCCC(C)O (stereo not shown) [Compound 3706] | 0.8 | 1.5 | 1 |
| CCN(CC)CCOC(=O)c1cc(Br)cc(-c2ccccc2)c1O [Compound 7450] | 9.8 | > 10 | > 10 |
| O=[N+]([O-])c1ccc(CO)o1 [Compound 6454] | 5.8 | – | > 10 |
| CCCCCCCCCC(=O)OC [Compound 3713] | – | 7 | – |
| CC(=O)N(C)c1ccc(N)cc1 [Compound 7107] | 5 | > 10 | – |
